# Patent EP2451450B1, “Inhibitors of proline racemase enzymes for the treatment of Trypanosoma spp infections” (Institut Pasteur, priority 2009, dated 2011)
# What was measured:
# TcPRAC = target: T1, TcPRAC (Trypanosoma cruzi, UniProt Q4DA80); assay: L-proline racemization assay by polarimetry; format: biochemical; conditions: for potency relative to PYC in terms of TcPRAC inhibition: based on the DAAOx test and polarimetry; for Racemization Inhibition: L-Proline 20 mM, 30 minutes 37°C, 0.25 µM TcPRAC
# T1 construct: implied only by nickel IMAC purification; made in house; host or cells: E. coli BL21 (DE3)
# Experimental: Briefly, classical assays of Proline racemization induced by TcPRAC were performed in tubes in a final volume of 1.5 ml and optical rotations measured in a polarimeter 241MC (Perkin Elmer). Parallel assays of Proline racemization were transposed into microplates in a final volume of 100 µl, as follows: serial dilutions of L- Proline ranging from 40 mM to 2.5 mM were prepared in 0.2 M sodium acetate pH 6.0 containing 0.25 mM rTcPRAC and loaded into microplate wells in the presence or in the absence of 0 - 20 µM pyrrole-2 carboxylic acid (PYC) or of similar dilutions of unknown potential inhibitors. Specific control wells were included omitting the TcPRAC and/or the PYC.
# The values presented in Table 2B correspond to racemization reactions performed in the absence or in the presence of the different inhibitors. Note that 6 µM PYC is necessary to inhibit 100 % of the racemization of 10-20 mM L-proline. Briefly, L-Proline (20 mM) were incubated for 30 minutes at 37°C in test tubes with or without 0.25 µM TcPRAC in 0.2 M sodium acetate pH 6. Reactions were stopped by heating at 65° C for 10 minutes. Reaction volumes were analyzed for D-Proline formation, by measuring optical rotations in a polarimeter (365nm).
# [1] = system: T.cruzi CL Brener (clone F11-F5); assay: Vero cell infection by trypomastigotes in the presence of inhibitor (17h), Giemsa scoring; format: cell-based; parameters: key to Endocytic index / Endocytic index (EI): EI = % infected cells × mean parasites per infected cell; conditions: for Mean number of parasites/ cell: 1,5 at 0; for % Infected cells: 38,6 at 0; for Endocytic index: 57 at 0
# Experimental: (§1) Vero cells (from green monkey kidney) were seeded at a density of 15x10^6 cells per 25cm^2 culture flasks or at 5 x10^4 cells/well into LabTek slides. The cultures were maintained in RPMI 1640 medium supplemented with 5% fetal bovine serum and kept at 37°C in an atmosphere of 5% CO2. Cell culture-derived trypomastigotes from T.cruzi CL Brener (clone F11-F5) were isolated from the supernatant of Vero cells, which had been previously infected with bloodstream trypomastigotes. Vero cell cultures were infected for 17h at 37°C with cultured trypomastigotes at a 10:1 parasite/cell ratio in the presence or in the absence of increasing doses of freshly made dilutions (3-30 µM) of (E)-4-oxopent-2-enoic acid (OxoPA) and its derivative (E)-5-bromo-4-oxopent-2-enoic acid (Br-OxoPA), previously dissolved in dimethyl sulfoxide (DMSO). For comparison, cultures were seeded with or without 10-1000 µM specific proline racemase inhibitor pyrrole-2-carboxylic acid (PYC) also diluted in DMSO. To verify if proline racemase inhibitors could also exert an effect on the parasite intracellular cycle after 17 hours of parasite-host cell interaction, all the wells were then rinsed three times to eliminate all extracellular parasites and new medium was added to the cultures that were incubated for up to 48 hours with fresh dilutions of the inhibitor compounds. After the different treatments, cultures were washed with PBS, fixed and stained with Giemsa. The numbers of infected host cells and of parasites per infected cell were then scored in at least 400 host cells in independent experiments, run in duplicate. Results are expressed as the percentage of infected cells, the mean number of parasites per infected cell or by the endocytic index (EI) which represents the percentage of infected cells multiplied by the mean number of parasites per infected cell.
# Vero cells (from green monkey kidney) were seeded at a density of 15x10^6 cells per 25cm^2 culture flasks or at 5 x10^4 cells/well into LabTek slides. The cultures were maintained in RPMI 1640 medium supplemented with 5% fetal bovine serum and kept at 37°C in an atmosphere of 5% CO2. Cell culture-derived trypomastigotes from T.cruzi CL Brener (clone F11-F5) were isolated from the supernatant of Vero cells, which had been previously infected with bloodstream trypomastigotes. LabTek wells were infected for 17h at 37°C with cultured trypomastigotes at a 10:1 parasite/cell ratio in the presence or in the absence of increasing doses of a freshly made dilutions of 3-30 µM of OxoPA or Br-OxoPA molecules. Cultures were washed, fixed and stained with Giemsa. *At this stage, for comparison, results obtained from cultures seeded with or without 10-1000 µM specific proline racemase inhibitor pyrrole-2-carboxylic acid (PYC) are shown and were obtained from our previous work. Endocytic index was calculated as the % of infected cells X the mean number of intracellular parasites per infected cell. Nd = Not done
# [2] = system: T.cruzi CL Brener (clone F11-F5); assay: Intracellular parasite fate: inhibitor added after 17h infection, 48h, Giemsa scoring; format: cell-based; conditions: 48h after infection; for Mean number of parasites/ cell: 3,9 at 0; for % Infected cells: 39,3 at 0; for Number of parasites/100 cells: 153,15 at 0
# Experimental: as §1
# Additional studies were performed to verify whether TcPRAC inhibition by the new compounds would influence the intracellular fate of the parasite. For this purpose, after infection for 17 hours, the host cells were washed and different ligand concentrations (3µM, 10 µM, 30 µM) were added to the medium and the infection was followed for up to 48 hours. As can be observed in Tables 4A, B and C, after 48 hours of culture treatments, there was a dose-dependent decrease in the number of parasites/ 100 cells, as well as in the percentage of infected cells or yet in the mean number of parasites/cell. […] Table 4A : Number of parasites/100 cells
# Vero cells (from green monkey kidney) were seeded at a density of 15x10^6 cells per 25cm2 culture flasks or at 5x10^4 cells/well into LabTek slides. The cultures were maintained in RPMI 1640 medium supplemented with 5% fetal bovine serum and kept at 37°C in an atmosphere of 5% CO2. Cell culture-derived trypomastigotes from T.cruzi CL Brener (clone F11-F5) were isolated from the supernatant of Vero cells, which had been previously infected with bloodstream trypomastigotes. LabTek wells were infected for 17h at 37°C with cultured trypomastigotes at a 10:1 parasite/cell ratio. All the wells were then washed to eliminate all extracellular parasites and new medium was added to the cultures containing or not increasing concentrations of freshly made dilutions of 3-30 µM of OxoPA or Br-OxoPA molecules. Cultures were washed after 48h, fixed and stained with Giemsa.
# [3] = system: T.cruzi CL Brener (clone F11-F5); assay: Vero cell infection by trypomastigotes in the presence of inhibitor (17h), Giemsa scoring; format: cell-based; parameters: key: EI = % infected cells × mean parasites per infected cell; conditions: Table 5
# [4] = Inhibitor concentration (µM) 30, Table 5
# T1 sequence (Q4DA80 32-423): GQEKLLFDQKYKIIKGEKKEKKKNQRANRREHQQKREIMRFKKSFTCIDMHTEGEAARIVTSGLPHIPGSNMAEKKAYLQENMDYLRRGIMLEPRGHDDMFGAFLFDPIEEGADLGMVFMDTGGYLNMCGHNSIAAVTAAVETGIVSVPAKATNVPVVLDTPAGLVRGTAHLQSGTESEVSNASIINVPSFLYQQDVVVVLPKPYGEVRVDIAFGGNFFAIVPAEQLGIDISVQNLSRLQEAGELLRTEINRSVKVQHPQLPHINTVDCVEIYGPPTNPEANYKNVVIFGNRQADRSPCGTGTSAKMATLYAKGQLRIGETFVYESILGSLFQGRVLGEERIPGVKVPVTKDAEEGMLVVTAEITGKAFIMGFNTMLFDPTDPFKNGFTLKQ
Structure (SMILES),potency relative to PYC in terms of TcPRAC inhibition (TcPRAC),Mean number of parasites/ cell ([1]; 3 µM),% Infected cells ([1]; 3 µM),Endocytic index ([1]; 3 µM),Mean number of parasites/ cell ([1]; 10 µM),% Infected cells ([1]; 10 µM),Endocytic index ([1]; 10 µM),Mean number of parasites/ cell ([1]; 30 µM),% Infected cells ([1]; 30 µM),Endocytic index ([1]; 30 µM),"Endocytic index (EI) [1, 4]",lower doses necessary to obtain the same endocytic index (EI) as with PYC ([1]; Table 5),lower doses necessary to obtain the same endocytic index (EI) as with PYC ([1]; versus 1000 µM PYC),Mean number of parasites/ cell ([2]; 3 µM),% Infected cells ([2]; 3 µM),Number of parasites/100 cells ([2]; 3 µM),Mean number of parasites/ cell ([2]; 10 µM),% Infected cells ([2]; 10 µM),Number of parasites/100 cells ([2]; 10 µM),Mean number of parasites/ cell ([2]; 30 µM),other results
"O=C(O)/C=C/C(=O)CBr [Br-OxoPA, (E)-5-bromo-4-oxopent-2-enoic acid]",4 fold,"2,0","37,7%","77,7","1,8","23,5%","42,3","1,6","13,5%","28,7",29,30 fold,30 times,"3,2","55,3%","176,5","3,1","49,8%","155,8","2,3","Racemization Inhibition (TcPRAC; ligand 2.5 µM): 50.0%; Racemization Inhibition (TcPRAC; ligand 10.0 µM): 81.3%; Endocytic index (EI) ([1]; Inhibitor concentration (µM) 10, Table 5): 42; % Infected cells ([2]; 30 µM): 31,0%; Number of parasites/100 cells ([2]; 30 µM): 69,4; Endocytic index (EI) ([3]; Inhibitor concentration (µM) 3): 78"
"CC(=O)/C=C/C(=O)O [OxoPA, (E)-4-oxopent-2-enoic acid]",2 fold,"1,6","26,8%","41,8","1,4","16,6%","22,96","1,5","13,9%","21,5",21,100 fold,100 times,"2,9","41,3%","121,3","3,0","41,3%","129,4","2,8","Racemization Inhibition (TcPRAC; ligand 3.0 µM): 50.0%; % Infected cells ([2]; 30 µM): 20,0%; Number of parasites/100 cells ([2]; 30 µM): 56,1; Endocytic index (EI) ([3]; Inhibitor concentration (µM) 3): 42; Endocytic index (EI) ([3]; Inhibitor concentration (µM) 10): 23"
